Patent US5597919A, “Pyrimidinyl or Pyridinyl alkenyl amine compounds” (priority 1995, dated 1997)

Assays:
[1] = tested on: dopamine release from synaptosomes of the striatal area of rat brain; format: biochemical, rat (Sprague-Dawley); conditions: for Dopamine Release Emax (% nicotine): rat, striatal synaptosomes
[2] = tested on: ganglionic-type neuronal nicotinic receptors (rat pheochromocytoma clonal line PC 12); assay: Interaction with ganglia: 86Rb+ efflux in PC12 cells; format: cell-based

Structure (SMILES)	EC50 [1]	Dopamine Release Emax (% nicotine) [1]	Ganglion Effect (% nicotine) [2]
NCC/C=C/c1cncnc1.O=C(O)/C=C/C(=O)O [Sample No. 1, (E)-4-(5-pyrimidinyl)-3-butene-1-amine monofumarate]	4.36 µM	113 % nicotine	
CNCC/C=C/c1cncnc1 [Sample No. 2, (E)-N-methyl-4-(5-pyrimidinyl)-3-butene-1-amine]	5.8 µM	77 % nicotine	1 % nicotine
COc1cncc(/C=C/CCN)c1 [Sample No. 3, (E)-4-[3-(5-methoxypyridin)yl]-3-butene-1-amine monofumarate]	4 µM	95 % nicotine	0 % nicotine
CNCCC#Cc1cccnc1 [Sample No. 4, N-Methyl-4-(3-pyridinyl)-3-butyne-1-amine]	8.35 µM	87 % nicotine	59 % nicotine
CNCC/C=C\c1cccnc1 [Sample No. 5, (Z)-metanicotine]	11.3 µM	88 % nicotine	
CNCC/C=C/c1ccc(C)nc1 [Sample No. 6, (E)-N-methyl-4-[3-(6-methylpyrindin)yl]-3-butene-1-amine]	0.219 µM	60 % nicotine	4 % nicotine
CNCCCCc1cccnc1 [Sample No. 7, N-methyl-(3-1-pyridinyl)-butane-1-amine]		72 % nicotine	31 % nicotine
CNCC/C=C/c1cccnc1 [Sample No. 8, (E)-metanicotine]	1.47 µM	80 % nicotine	
CN1CCC[C@H]1c1cccnc1 [Sample No. C-1, (S)-(-)-nicotine, reference compound]	0.115 µM		
